Laboratory results taken from paper PMC10141580, “Cyclic Dichalcogenides Extend the Reach of Bioreductive Prodrugs to Harness Thiol/Disulfide Oxidoreductases: Applications to seco-Duocarmycins Targeting the Thioredoxin System” (ACS Central Science, 2023).
Like-named read-outs stand apart in the source and are kept apart here.

Legend:
Balb/c mice = assay: Moderate repeated dosing tolerability study; format: in vivo
Description: Next, a moderate repeated dosing study in Balb/c mice (3 animals per group) tested the importance of solubilizing the prodrugs.
Methods for in vivo animal studies
All in vivo studies were conducted as contract research together with React ionBiology Eur ope G mbH (Freiburg,
Germany), EPO – Experimental Pharmacology & Oncology GmbH (Berlin, Germany); Bient a/ Enam ine Lt d. (Kyiv,
Ukraine) and Leit at – Managing Technologies (Barcelona, Spain), adhering to the respective animal welfare
Mice were kept in individually ventilated cages at constant temperature (22±2 °C, air-conditioned) and humidity (45
– 65%), under optimum hygienic conditions with 10 – 15 air changes per hour. A cycle of 12 h artificial fluorescent
light ning and 12 h darkness was applied , and animal behavior was monitored daily throughout the studies. The
animals received food and water ad libit um.
To evaluate toxicity of selected compounds, dose level selection studies within dose range from 0.1 mg/kg to
10 mg/kg were performed by intravenous administration into Balb /c mice. Each dose for each tested compound
was administered in one mouse.
changes and clinical signs of gross toxicity three tim es per week for 21 consecutive days of post-dosing period.
After the first week of observation without adverse events, two doses for each test compound were selected as
tolerated. These two doses were tested in two additional mice for confirmation of toler ability. Additional animals
consecutive days of post-dosing period. Toxicity of repeated administrations was tested wit h t hr ee repeat ed pr e-
selected doses at a dosing interval of 7 days. Mortality, body weight changes, and clinical signs of gross toxicity
were monitored after each drug administration and three times per week for 21 consecutive days after the first
compound administration. Bleed ing with subsequent hematological tests, clinical chemistry parameters analysis
(ALT, AST, ALP, LDH, creatine kinase, creatinine, urea, cholesterol, and triglycerides), and necropsy with
macroscopic inspection were performed on the terminal day of the repeated dosing-regime.
To test tolerability of selected compounds in vivo, female BALB/c mice were randomized by weight into seven
groups of t hree animals.

mouse = assay: Tolerability for repeated dose administration in vivo (summary); conditions: for remarks: repeated dose administration
A549 cells = assay: Resazurin cytotoxicity assay, A549, 72 h; conditions: read-out: IC50(nM): A549
Description: (§1) We used A549 lung cancer and HeLa cervical cancer cell lines for initial screening of the prodrugs.
Fi gure S9: Cell ular resazurin-based cytotoxi ci ty as s a y.
Dose -response curves were calculated from at least 27 incremental single concentrations over a range
of at least three log units. Individual experiments with annotated experiment numbers are shown for each prodrug

HeLa-HRE cells = assay: Resazurin cytotoxicity assay, HeLa-HRE, 48 h; conditions: for IC50: HeLa, 48 h, read-out: IC50(nM): HeLa; for IC50(HeLa)/IC50(A549): ratio HeLa vs A549
Description: as §1
HeLa-HRE cells were treated with prodrugs of the
Dose -response curves were calculated from at least 27 incremental single concentrations over a
range of at least three log units.

[1] = test system: NCI-60 standardized human tumor cell line panel; assay: cells; format: cell-based; conditions: AZI sheet, read-out: GI50
[2] = Cell-free HPLC reduction assay (GSH or TCEP challenge); conditions: 5 mM GSH (50 equiv), 24 h
Excerpt: These performance features had not been tested with naphthols, so we used HPLC to test them and show their reduction-based activation sequence (Figure 2c and Figures S4–S6).
In brief, treatment with the quantitative reductant TCEP triggered a reaction cascade matching the activation sequence we expected (Figure 2c): dichalcogenides are reduced to dichalcogenols that cyclize, giving the naphthol cargos (plus thiol trigger byproduct) that evolve to the activated cyclopropanes (Figure 5).
The mobile phase consists of eluent A: water (analytical
grade, 0.1% formic acid) and eluent B: MeCN (analytical grade, 0.1% formic acid).
using a gradient of 10% B t o 90% B over 10 min.
Reduction assay using TCEP and GSH
tris(2-carboxyethyl)phospine) (TCEP, 5 mM in TE-bu f f e r ) , or reduced glut at hione (GSH, 50 mM in TE-buf f er) or
else blank TE-buffer. Final concentrations: Prodrug (0.1 mM) , TCEP ( 0. 5 mM) , G SH ( 5 mM). The blank sample
was measured after 10 min (“pure”) and 24 h (“O H-“) to control for basic hydrolysis. The GSH sample was
measured after 24 h to control for monothiol-based reductive release. The TCEP sample was measured at several […]
extracted for each of the intermediate species and final r elease products. Peak areas were calculated relative to
the sum of all peak areas at 320 nm to quantify individual species at each timepoints. […]

Structure (SMILES): CN(C(=O)Oc1cc2c(c3ccccc13)[C@H](CCl)CN2C(=O)c1cc2cc(OCCCN3CCC3)ccc2[nH]1)[C@H]1CCS[Se]C1 [SeS60-CBI-AZI]
- outcome of repeated dosing at 3 mg/kg (Balb/c mice; once weekly): significant loss of body weight
- outcome of repeated dosing at 1 mg/kg (Balb/c mice; treated twice a week): still caused adverse effects
- remarks (mouse): adverse effects
- IC50 (A549 cells; Homo sapiens): 60 nM
- IC50 (HeLa-HRE cells; Homo sapiens): 49 nM
- IC50(HeLa)/IC50(A549) (HeLa-HRE cells): 0.8

Structure (SMILES): CN1CCN(C(=O)Oc2cc3c(c4ccccc24)C(CCl)CN3C(=O)c2cc3cc(OCCCN4CCC4)ccc3[nH]2)C2CSSCC21 (mixture of isomers) [Me-SS66T-CBI-AZI]
- GI50 ([1]; 786-0): 13 nM
- GI50 ([1]; A498): 15 nM
- GI50 ([1]; A549/ATCC): 1.8 nM
- GI50 ([1]; ACHN): 2.4 nM
- GI50 ([1]; BT-549): 21 nM
- GI50 ([1]; CAKI-1): 2.8 nM
- GI50 ([1]; CCRF-CEM): 7.4 nM
- GI50 ([1]; COLO 205): 15 nM
- GI50 ([1]; DU-145): 3.9 nM
- GI50 ([1]; EKVX): 12 nM
- GI50 ([1]; HCC-2998): 3.5 nM
- GI50 ([1]; HCT-15): 3.8 nM
- GI50 ([1]; HCT-116): 6.8 nM
- GI50 ([1]; HL-60(TB)): 9.9 nM
- GI50 ([1]; HOP-62): 5.2 nM
- GI50 ([1]; HOP-92): 18 nM
- GI50 ([1]; HT29): 8.3 nM
- GI50 ([1]; IGROV1): 17 nM
- GI50 ([1]; K-562): 4.4 nM
- GI50 ([1]; KM12): 16 nM
- GI50 ([1]; LOX IMVI): 2.2 nM
- GI50 ([1]; M14): 5.6 nM
- GI50 ([1]; MALME-3M): 6.4 nM
- GI50 ([1]; MDA-MB-231): 19.2 nM
- GI50 ([1]; MDA-MB-435): 13 nM
- GI50 ([1]; MDA-MB-468): 2.6 nM
- GI50 ([1]; MOLT-4): 4.5 nM
- GI50 ([1]; NCI-H23): 1.7 nM
- GI50 ([1]; NCI-H226): 3.4 nM
- GI50 ([1]; NCI-H522): 11 nM
- GI50 ([1]; OVCAR-3): 27 nM
- GI50 ([1]; OVCAR-4): 28 nM
- GI50 ([1]; OVCAR-5): 6.9 nM
- GI50 ([1]; OVCAR-8): 3.3 nM
- GI50 ([1]; PC-3): 19.7 nM
- GI50 ([1]; RPMI-8226): 23 nM
- GI50 ([1]; RXF 393): 5.7 nM
- GI50 ([1]; SF-268): 9 nM
- GI50 ([1]; SF-295): 2.2 nM
- GI50 ([1]; SF-539): 5.2 nM
- GI50 ([1]; SK-MEL-2): 19 nM
- GI50 ([1]; SK-MEL-5): 2.3 nM
- GI50 ([1]; SK-MEL-28): 4.8 nM
- GI50 ([1]; SK-OV-3): 15 nM
- GI50 ([1]; SN12C): 10 nM
- GI50 ([1]; SNB-19): 5.8 nM
- GI50 ([1]; SR): 1.7 nM
- GI50 ([1]; SW-620): 2.3 nM
- GI50 ([1]; T-47D): 15 nM
- GI50 ([1]; TK-10): 22 nM
- GI50 ([1]; U251): 1.6 nM
- GI50 ([1]; UACC-62): 2.2 nM
- GI50 ([1]; UACC-257): 15 nM
- GI50 ([1]; UO-31): 3.8 nM
- IC50 (A549 cells): 51 nM
- IC50(HeLa)/IC50(A549) (HeLa-HRE cells): 1.0
- IC50 (HeLa-HRE cells): 49 nM
- release/reduction on GSH challenge [2]: partial reduction

Structure (SMILES): CN1CCN(C(=O)CCN(C(=O)Oc2cc3c(c4ccccc24)[C@H](CCl)CN3C(=O)c2cc3cc(OCCCN4CCC4)ccc3[nH]2)[C@H]2CCSSC2)CC1 [P-SS60-CBI-AZI]
- GI50 ([1]; 786-0): 330 nM
- GI50 ([1]; A498): 200 nM
- GI50 ([1]; A549/ATCC): 110 nM
- GI50 ([1]; ACHN): 130 nM
- GI50 ([1]; BT-549): 1000 nM
- GI50 ([1]; CAKI-1): 150 nM
- GI50 ([1]; CCRF-CEM): 270 nM
- GI50 ([1]; COLO 205): 430 nM
- GI50 ([1]; DU-145): 170 nM
- GI50 ([1]; EKVX): 350 nM
- GI50 ([1]; HCC-2998): 150 nM
- GI50 ([1]; HCT-15): 210 nM
- GI50 ([1]; HCT-116): 230 nM
- GI50 ([1]; HL-60(TB)): 390 nM
- GI50 ([1]; HOP-62): 150 nM
- GI50 ([1]; HOP-92): 1000 nM
- GI50 ([1]; HT29): 210 nM
- GI50 ([1]; IGROV1): 540 nM
- GI50 ([1]; K-562): 220 nM
- GI50 ([1]; KM12): 310 nM
- GI50 ([1]; LOX IMVI): 86 nM
- GI50 ([1]; M14): 200 nM
- GI50 ([1]; MALME-3M): 230 nM
- GI50 ([1]; MCF7): 49 nM
- GI50 ([1]; MDA-MB-231): 402 nM
- GI50 ([1]; MDA-MB-435): 290 nM
- GI50 ([1]; MDA-MB-468): 150 nM
- GI50 ([1]; MOLT-4): 230 nM
- GI50 ([1]; NCI-H23): 66 nM
- GI50 ([1]; NCI-H226): 150 nM
- GI50 ([1]; NCI-H460): 31 nM
- GI50 ([1]; NCI-H522): 250 nM
- GI50 ([1]; OVCAR-3): 430 nM
- GI50 ([1]; OVCAR-4): 1400 nM
- GI50 ([1]; OVCAR-5): 390 nM
- GI50 ([1]; OVCAR-8): 140 nM
- GI50 ([1]; PC-3): 378 nM
- GI50 ([1]; RPMI-8226): 570 nM
- GI50 ([1]; RXF 393): 190 nM
- GI50 ([1]; SF-268): 280 nM
- GI50 ([1]; SF-295): 110 nM
- GI50 ([1]; SF-539): 330 nM
- GI50 ([1]; SK-MEL-2): 340 nM
- GI50 ([1]; SK-MEL-5): 150 nM
- GI50 ([1]; SK-MEL-28): 210 nM
- GI50 ([1]; SK-OV-3): 310 nM
- GI50 ([1]; SN12C): 530 nM
- GI50 ([1]; SNB-19): 270 nM
- GI50 ([1]; SR): 66 nM
- GI50 ([1]; SW-620): 130 nM
- GI50 ([1]; T-47D): 570 nM
- GI50 ([1]; TK-10): 1600 nM
- GI50 ([1]; U251): 100 nM
- GI50 ([1]; UACC-62): 110 nM
- GI50 ([1]; UACC-257): 380 nM
- GI50 ([1]; UO-31): 190 nM
- remarks (mouse): well tolerated
- well-tolerated dose (mouse; weekly or twice-weekly administration): 3 mg/kg
- IC50 (A549 cells): 100 nM
- IC50(HeLa)/IC50(A549) (HeLa-HRE cells): 8.9
- IC50 (HeLa-HRE cells): 890 nM
